In brackets after ≈: the same amount, converted by molar mass.

In data set [1] the test system is ergosterol biosynthesis in C. krusei. Description: Quantification of ergosterol level by LC-MS-MS. Format: cell-based. To be noted: Pichia kudriavzevii, mean ± SD, quadruplicate. The text has this: Sterols are neutral lipids of eukaryotic cells, among which ergosterol is the main constituent of fungal membranes. Ergosterol has biological functions such as membrane fluidity, regulation, activity and distribution of integral membrane proteins, and control of the cell cycle. The critical role of sterols in maintenance of cell membranes make ergosterol and its biosynthetic pathway essential for fungal growth, and a primary target for antifungal drugs to treat fungal infections. From this point of view, we performed an LCMSMS (Shimadzu LCMS 8040, Kyoto, Japan) method for quantitative determination of ergosterol content of C. krusei as reported in our recent study. Compounds 3a–3d, displaying the best anticandidal activity and low cytotoxic effect, and reference agents ketoconazole and fluconazole were tested at concentrations of 0.78–3.12 µg/mL. Ergosterol standard (Product No.: 45480, Sigma-Aldrich, Darmstadt, Germany) was used for the quantification of ergostrerol in samples, which were treated with reference agents and Compounds 3a–3d. Ergosterol quantity of the negative control was considered as 100%. Quadruplicate analyses were performed for all concentrations and the obtained data were expressed as mean ± standard deviation (SD) (Table 2).
Extraction of total sterols from C. krusei was performed as recorded by Breivik and Owades. Quantification of ergosterol level in this extract was carried out in accordance with our recently described method.

For data set [2], the system named is NIH/3T3 mouse embryonic fibroblast cell line. Description: MTT cytotoxicity test. The format is cell-based. To be noted: NIH3T3, cytotoxic activity, NIH/3T3 cell line. Here is the method:
The main cause of failure in all stages of the new drug development process is toxicity. Early identification of toxicities of drug candidates is very important in terms of drug development studies. […] Cytotoxicity of selected compounds (3a–3d), displaying strong anticandidal activity and good predicted pharmacokinetics, was determined against NIH/3T3 mouse embryonic fibroblast cell lines (ATCC CRL1658).
Cytotoxicity was tested using the NIH/3T3 mouse embryonic fibroblast cell line (ATCC® CRL-1658™, London, UK). NIH/3T3 cells were incubated according to the supplier’s recommendations. NIH/3T3 cells were seeded at 1 × 10^4 cells into each well of the 96-well plates. The MTT assay was performed as previously described. The compounds were tested between 800 and 0.78 µg/mL concentrations. Inhibition % was calculated for each concentration according to the formula below, and IC50 values were determined by plotting a dose–response curve of inhibition % versus compound concentrations tested.
% inhibition = 100 − (mean sample × 100/mean solvent).
(Tetrazolium assays rely on reduction of a dye to a coloured formazan, in cell work by metabolically active cells.)

For a further data set, the system named is C. albicans (ATCC 24433). Description: Anticandidal activity, EUCAST EDef 7.1 broth dilution with resazurin. Format: cell-based. The following applies: Candida albicans, ATCC24433, RPMI pH 7, 24 h. Here is the method:
(§1) Synthesized compounds (3a–3o) were evaluated for anticandidal activity against C. albicans (ATCC 24433), C. krusei (ATCC 6258), C. parapsilosis (ATCC 22019), and C. glabrata (ATCC 90030). MIC50 values were determined via fluorometric measurements, using resazurin solution [24, 25]. Ketoconazole and fluconazole were used as a standard drug in the activity test.
(§2) Microbiological studies were performed according to the EUCAST definitive (EDef 7.1) method for C. albicans (ATCC 24433), C. krusei (ATCC 6258), C. parapsilosis (ATCC 22019), and C. glabrata (ATCC 90030). Fluconazole and ketoconazole were used as control drugs. Two MIC readings were carried out for each chemical agent. The yeasts were maintained in RPMI after overnight incubation at 37 °C. The inocula of test microorganisms was adjusted to match the turbidity of a MacFarland 0.5 standard tube as determined with a spectrophotometer, and the final inoculum size was 0.5–2.5 × 10^5 cfu/mL for the antifungal assay. Testing was carried out in RPMI at pH = 7, and the two-fold serial dilutions technique was applied. The last well on the microplates containing only inoculated broth was kept as a control, and the last well with no growth of microorganism was recorded to represent the MIC50 expressed in μg/mL. For the antifungal assays, the compounds were dissolved in DMSO. Further dilutions of the compounds and standard drugs in the test medium were prepared at the required quantities of 800, 400, 200, 100, 50, 25, 12.5, 6.25, 3.125, 1.5625, and 0.78 μg/mL concentrations RPMI. The completed plates were incubated for 24 h. At the end of the incubation, resazurin (20 µg/mL) was added into each well to control the growth in the wells. Completed plates were incubated for 2 h. MIC50 values were determined using a microplate reader at […].
In general terms: Dilution methods test growth across graded concentrations, often in twofold steps.

The subject of another data set is C. glabrata (ATCC 90030). The data set is described as above. The format is cell-based. To be noted: Nakaseomyces glabratus, ATCC90030, RPMI pH 7, 24 h. Here is the method:
as §1, §2

The next data set has as its system C. krusei (ATCC 6258). The description is as above. Format: cell-based. The following applies: Pichia kudriavzevii, ATCC6258, RPMI pH 7, 24 h. How it is done:
as §1, §2

The subject of data set [3] is C. parapsilosis (ATCC 22019). The description is as above. Format: cell-based. To be noted: Lodderomyces parapsilosis, ATCC22019, RPMI pH 7, 24 h. Here is the method: as §1, §2

Turning to `Cc1ccc(Oc2ccc(C=CC(=O)c3ccc(-n4ccnc4)cc3)cc2)cc1` [Compound 3a, 1-(4-(1H-Imidazol-1-yl)phenyl)-3-(4-(p-tolyloxy)phenyl)prop-2-en-1-one], the melting point (as a rule, the temperature of the solid-liquid transition) lay in the range of 146 to 148 °C. Also, in data set [1], testing at 0.78 µg/mL gave an inhibition of 66.2 ± 2.23%, the inhibition (commonly how much of the control response was suppressed) at 1.56 µg/mL worked out at 79.5 ± 3.16% and testing at 3.12 µg/mL gave an inhibition of 86.5 ± 4.77%. Besides, the 50% inhibitory concentration (IC50) (as a rule, the concentration needed to halve the response being measured) in data set [2] is greater than 500 µg/mL. In addition, in the data set with C. albicans (ATCC 24433), the MIC50 (usually the lowest concentration that inhibits either 50% of growth or 50% of the strains tested, depending on the study) was 3.12 µg/mL (≈ 8.21 µM). The molecule also showed an MIC50 in the data set with C. glabrata (ATCC 90030) of 3.12 µg/mL (≈ 8.21 µM). Also, the MIC50 with C. krusei (ATCC 6258) came out at 0.78 µg/mL (≈ 2.05 µM). Moreover, the MIC50 in data set [3] was 0.78 µg/mL (≈ 2.05 µM).
Turning to `Cc1ccc(Sc2ccc(C=CC(=O)c3ccc(-n4ccnc4)cc3)cc2)cc1` [Compound 3b, 1-(4-(1H-Imidazol-1-yl)phenyl)-3-(4-(p-tolylthio)phenyl)prop-2-en-1-one], the melting point fell in the range of 168 to 169 °C. In data set [1], at 0.78 µg/mL the inhibition was 68.6 ± 1.98%, testing at 1.56 µg/mL gave an inhibition of 81.6 ± 4.07% and the inhibition at 3.12 µg/mL was 83.5 ± 3.18%. In data set [2], this molecule had an IC50 greater than 500 µg/mL. In addition, the MIC50 in the data set on C. albicans (ATCC 24433) was found to be 3.12 µg/mL (≈ 7.88 µM). In the data set with C. glabrata (ATCC 90030), this molecule yielded an MIC50 of 3.12 µg/mL (≈ 7.88 µM). In the data set on C. krusei (ATCC 6258), this molecule came in with an MIC50 of 0.78 µg/mL (≈ 1.97 µM). The molecule also had an MIC50 in data set [3] of 0.78 µg/mL (≈ 1.97 µM).

These data come from publication PMC6017838, “Synthesis and Anticandidal Activity of New Imidazole-Chalcones” (Molecules : A Journal of Synthetic Chemistry and Natural …, 2018).
